Earlier results, collected in US20040191218A1, “Pharmaceutical compositions and methods for treating cancer” (priority 2001, published 2004).

How the values were obtained:
[1] = carboplatin compared with cisplatin
relapsing ovarian cancer = details: 14 patients with relapsing ovarian cancer, IFN-γ 2 mg/m^2 daily intravenously
ovarian cancer = details: intraperitoneal IFN-γ, 108 patients with residual disease at second-look laparotomy
[2] = test system: neoplastic cells including ovarian cancer cells

| Compound | neurotoxicity and nephrotoxicity [1] | Positive responses (relapsing ovarian cancer) | overall response rate (ovarian cancer) | antiproliferative effects on neoplastic cells [2] |
| --- | --- | --- | --- | --- |
| [NH2][Pt]1([NH2])[O]C(=O)C2(CCC2)C(=O)[O]1 [carboplatin, diammine(1,1-cyclobutanedicarboxylato) platinum(II)] | less neurotoxicity and nephrotoxicity than cisplatin | – | – | – |
| IFN-γ: lymphokine produced by T-lymphocytes; natural or recombinant interferon gamma | – | 29% | 31% | exerts antiproliferative effects |
